Data on 1 molecule can be found in patent US20150315179A1, “COMPOUNDS AND METHODS OF TREATING NEUROLOGICAL DISORDERS” (Torrey Pines Institute For Molecular Studies, priority 2014, published 2015).

The target of one data set is TrkA receptors (Homo sapiens, UniProt P04629). The data set is described as follows: Octet Red label-free binding. Particulars: biotinylated TrkA on SSA biosensors. Here is the method: FIGS. 9.1A and B illustrate that THPI-244 directly binds TrkA receptors as determined by label-free, real-time Octet Red detection system. FIG. 9.1A illustrates that biotinylated TrkA was loaded on to super-streptavidin (SSA) biosensors and after obtaining the baseline, were incubated with THPI-244 which dose-dependently bound TrkA receptors (Association). Incubation with kinetics buffer rapidly dissociated the binding.
A general note: BLI is a label-free optical method that tracks binding on a fibre tip over time.

A short description of another data set: BBB of THPI-244 analogs. From the text: The following table illustrates Chemical structures and properties of THPI-244 analogs selected out of 37 analogs, and each have significant sAPPα increasing activity. Toxicity is the minimum dose for toxicity.
For a further data set, the system named is C57BL/6 mice. The data set can be described thus: Lethal dose (LD50) study in mice. It is filed as in vivo, mouse. From the text: Wild-type (WT) C57BL/6 mice aged about 6 months were used in the study. The compound THPI-244 was initially dissolved in 100% DMSO and then diluted to final 10% DMSO with phosphate buffered saline (PBS). […] Among these 6 mice, 3 mice received repeated injections (i.p) of compound THPI-244 for 5 days.

Usually pKd stands for −log10 of the Kd, conventionally taken in molar units. Higher therefore signals a small Kd.

Structures are written as SMILES. pKd: −log10 of the molar value.

TrkA receptors, sequence (P04629 33-796): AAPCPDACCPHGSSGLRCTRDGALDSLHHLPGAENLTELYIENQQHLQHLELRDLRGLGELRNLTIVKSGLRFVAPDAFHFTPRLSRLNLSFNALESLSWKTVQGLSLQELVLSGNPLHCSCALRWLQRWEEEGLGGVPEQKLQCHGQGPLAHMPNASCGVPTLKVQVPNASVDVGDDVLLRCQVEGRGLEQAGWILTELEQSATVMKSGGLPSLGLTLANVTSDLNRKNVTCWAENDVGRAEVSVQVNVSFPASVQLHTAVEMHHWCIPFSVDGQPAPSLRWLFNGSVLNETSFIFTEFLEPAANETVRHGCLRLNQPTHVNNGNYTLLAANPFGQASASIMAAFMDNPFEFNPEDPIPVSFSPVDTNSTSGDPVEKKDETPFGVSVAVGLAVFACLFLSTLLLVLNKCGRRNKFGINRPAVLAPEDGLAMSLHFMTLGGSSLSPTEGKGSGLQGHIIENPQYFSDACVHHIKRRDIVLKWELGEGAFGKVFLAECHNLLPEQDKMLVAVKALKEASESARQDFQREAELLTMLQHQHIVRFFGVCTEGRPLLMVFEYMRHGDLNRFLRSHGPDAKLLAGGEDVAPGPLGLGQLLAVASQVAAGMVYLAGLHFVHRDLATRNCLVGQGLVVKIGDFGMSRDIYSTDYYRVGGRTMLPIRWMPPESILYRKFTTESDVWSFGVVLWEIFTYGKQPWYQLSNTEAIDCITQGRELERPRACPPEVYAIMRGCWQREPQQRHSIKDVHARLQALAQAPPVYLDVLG

In the case of `O=C(Cc1ccccc1)N[C@H](CNc1nc(CN2CCN(C(=O)Cc3ccccc3)CC2)cs1)c1ccccc1` [THPI-244], the negative-log Kd (pKd) on TrkA receptors is 5.28. Moreover, in the data set “BBB of THPI-244 analogs”, the “% BBB” value is 0.1%. The death entry in the data set on C57BL/6 mice (100 mg/kg i.p., 6 mice, monitored for 5 days) was “did not result in the death of any of the 6 mice”. Moreover, the survival entry in the data set with C57BL/6 mice (200 mg/kg, single mouse) was “survived without visible ill effects”. For the same molecule, the lethal effect result with C57BL/6 mice (repeated i.p. injections for 5 days, 3 mice) is “None of the mice showed any lethal effect”.
